Our source for the inhibition in vivo and ED50 values is ChEMBL document CHEMBL1121615, “Synthesis and analgesic properties of some conformationally restricted analogues of profadol” (1980).

Each structure is given as a SMILES string.

Type in all cases: functional
Assay [1] concerns Mus musculus. As to the kind of experiment: Analgesia was determined by writhing test in mice after 100 mg/kg oral administration; Range is 25-49%. A general note: Writhing tests count abdominal constrictions after an irritant is injected.
The subject of assay [2] is Mus musculus. As to the kind of experiment: Analgesia was determined by writhing test in mice after 100 mg/kg oral administration; Range is 50-74%.
The species named for assay [3] is Mus musculus. Briefly: animal or person.
Description: The ED50 value of compound was measured for 50% inhibition for analgesia in mice by the hotplate method
The test system of assay [4] is Mus musculus. As to the kind of experiment: Analgesia was determined by writhing test in mice after 30 mg/kg oral administration.
For assay [5], the system named is Mus musculus. Briefly: Analgesia was determined by writhing test in mice after 30 mg/kg oral administration; Range is 50-74%.
The test system of assay [6] is Mus musculus. As to the kind of experiment: The ED50 value of compound was measured for 50% inhibition for analgesia in mice after oral administration by the hotplate method.
In assay [7] the test system is Mus musculus. Briefly: Analgesia was determined by writhing test in mice after 10 mg/kg oral administration.
The subject of assay [8] is Mus musculus. As to the kind of experiment: Analgesia was determined by writhing test in mice after 100 mg/kg oral administration; Range is 75-99%.

For orientation: inhibition in vivo means the drop in the measured response relative to a control, in per cent. In the assay on Mus musculus [1], `COc1ccc2c(c1)CCCC21CCNC1` (stereo not given) showed an inhibition in vivo at 100 mg/kg of 25%. Take `COc1ccc2c(c1)CCCC21CCN(C)C1` (stereo not given): in the assay with Mus musculus [2], the inhibition in vivo at 100 mg/kg is 50%. By ED50 is commonly meant the dose at which the effect has come halfway, by size or by number of responders. Lower therefore signals an effect at a small dose. `Cl.c1ccc2c(c1)CCCC21CCNC1` (stereo not given) displayed an ED50 in the assay filed under Mus musculus [3] of 13.3 mg/kg. In the assay on Mus musculus [4], this molecule showed an inhibition in vivo at 30 mg/kg of 100%. With `COc1cccc2c1CCCC21CCNC1` (stereo not given), it took a dose of 48.6 mg/kg to reach the 50% effect level in the assay filed under Mus musculus [3] (ED50). Besides, 30 mg/kg produced 50% inhibition in vivo with Mus musculus [5].

Take `CCCC1(c2cccc(O)c2)CCN(C)C1` (stereo not given) [PROFADOL]: in the assay on Mus musculus [6], the 50% effective dose (ED50) worked out at 3.9 mg/kg. In the assay with Mus musculus [7], this molecule displayed an inhibition in vivo at 10 mg/kg of 100%. Regarding `Oc1ccc2c(c1)C1(CCC2)CCNC1` (stereo not given), in the assay with Mus musculus [2], testing at 100 mg/kg gave an inhibition in vivo of 50%. For `Br.Oc1cccc2c1CCCC21CCNC1` (stereo not given), the median effective dose (ED50) in the assay on Mus musculus [6] is more than 50 mg/kg. The inhibition in vivo at 30 mg/kg in the assay with Mus musculus [5] was found to be 50%. In the assay with Mus musculus [1], `COc1ccc2c(c1)C1(CCC2)CCNC1` (stereo not given) registered an inhibition in vivo at 100 mg/kg of 25%. Molecule `Oc1ccc2c(c1)CCCC21CCNC1` (stereo not given) had an inhibition in vivo at 100 mg/kg with Mus musculus [2] of 50%. Molecule `CN1CC[C@]23c4c5ccc(O)c4O[C@H]2[C@@H](O)C=C[C@H]3[C@H]1C5.Cl` [MORPHINE HYDROCHLORIDE] returned an ED50 in the assay listed under Mus musculus [3] of 1.2 mg/kg. This molecule returned an inhibition in vivo at 10 mg/kg with Mus musculus [7] of 100%. Consider `CN1CCC2(CCCc3c(O)cccc32)C1` (stereo not given), for which the inhibition in vivo at 100 mg/kg in the assay with Mus musculus [1] was 25%. `Br.CN1CCC2(CCCc3cc(O)ccc32)C1` (stereo not given) registered a median effective dose (ED50) in the assay listed under Mus musculus [3] of more than 50 mg/kg. In addition, in the assay on Mus musculus [5], the inhibition in vivo at 30 mg/kg amounted to 50%.

Molecule `CN1CCC2(CCCc3ccccc32)C1.Cl` (stereo not given) displayed an ED50 in the assay listed under Mus musculus [3] of 12.1 mg/kg. This molecule also came in with an inhibition in vivo at 30 mg/kg in the assay with Mus musculus [4] of 100%. Regarding `Br.CN1CCC2(CCCc3ccc(O)cc32)C1` (stereo not given), the 50% effect level in the assay listed under Mus musculus [3] (ED50) was put at a dose of 42.8 mg/kg. The same molecule returned an inhibition in vivo at 30 mg/kg in the assay with Mus musculus [5] of 50%.

In the assay with Mus musculus [8], `COc1cccc2c1CCCC21CCN(C)C1` (stereo not given) displayed an inhibition in vivo at 100 mg/kg of 75%. In the assay on Mus musculus [6], `COc1ccc2c(c1)C1(CCC2)CCN(C)C1` (stereo not given) registered a 50% effective dose (ED50) of more than 50 mg/kg. Further, the inhibition in vivo at 30 mg/kg in the assay with Mus musculus [5] was 50%.
